From patent US20190231748A1, “COMPOSITION FOR VAGINA AND ANTIMICROBIAL AGENT COMBINATION FOR USE IN PREPARING COMPOSITION FOR VAGINA” (Shenzhen Eulikan Biotechnology Co., Ltd., priority 2016, published 2019)

Experiments:
Assay type in all cases: cell-based
[1] = test system: Lactobacillus jensenii; test: Gram-stained smear of co-culture gel, Gram-positive rods (G+b); settings: for Smear G^+b: cultivated 32 hours
Excerpt: (§1) 2.1 Experimental strains: one Lactococcus lactis strain and one Lactobacillus jensenii strain, both were clinical isolates.
(§2) The pH value was adjusted to 5.0.
(§3) 2.4 Experimental procedure: the test gel tubes containing different concentrations of antimicrobial agents, as shown in Tables 1 to 6 were inoculated with 100 microliters of Lactobacillus lactis suspension and 100 microliters of Lactobacillus jensenii suspension at the same time. The turbidities of both suspensions were 0.5 MCF. Then the tubes were cultivated at 37° C. and under 5 percent CO2 for 32 hours. Then the changes of the pH values of gels were tested. The gels were smeared, Gram stained, and microscopically examined for the morphology and quantity of bacteria.

[2] = test system: Lactococcus lactis and Lactobacillus jensenii; test: pH of test gel after co-culture of Lactococcus lactis and Lactobacillus jensenii; settings: cultivated 32 hours
Excerpt: as §1, §2, §3

[3] = test system: Lactococcus lactis; test: Gram-stained smear of co-culture gel, Gram-positive cocci (G+c); settings: for Smear G^+c: cultivated 32 hours
Excerpt: as §1, §2, §3

CC(=O)[O-].[Na+] [sodium acetate]
Smear G^+b ([1]; 0.1 % in test gel): G^+b+ | Smear G^+b ([1]; 0.2 % in test gel): G^+b+ | Smear G^+b ([1]; 0.3 % in test gel): G^+b+ | Smear G^+b ([1]; 0.4 % in test gel): G^+b+ | Smear G^+b ([1]; 0.5 % in test gel): G^+b+ | Smear G^+b ([1]; 0.6 % in test gel): G^+b+ | Smear G^+b ([1]; 0.7 % in test gel): G^+b+ | Smear G^+b ([1]; 0.8 % in test gel): G^+b+ | pH value ([2]; 0.1 % in test gel): <3.8 | pH value ([2]; 0.2 % in test gel): <3.8 | pH value ([2]; 0.3 % in test gel): <3.8 | pH value ([2]; 0.4 % in test gel): <3.8 | pH value ([2]; 0.5 % in test gel): <3.8 | pH value ([2]; 0.6 % in test gel): 3.8 | pH value ([2]; 0.7 % in test gel): 3.8 | pH value ([2]; 0.8 % in test gel): 3.8-4.1 | Smear G^+c ([3]; 0.1 % in test gel): G^+c++ | inhibition effect on the growth of Lactococcus lactis ([3]; 0.1 to 0.8 percent): little inhibition effect | Smear G^+c ([3]; 0.2 % in test gel): G^+c++ | Smear G^+c ([3]; 0.3 % in test gel): G^+c++ | Smear G^+c ([3]; 0.4 % in test gel): G^+c++ | Smear G^+c ([3]; 0.5 % in test gel): G^+c++ | Smear G^+c ([3]; 0.6 % in test gel): G^+c++ | Smear G^+c ([3]; 0.7 % in test gel): G^+c++ | Smear G^+c ([3]; 0.8 % in test gel): G^+c++

CC(=O)c1c([O-])cc(C)oc1=O.[Na+] [sodium dehydroacetate]
Smear G^+b ([1]; 0.005 % in test gel): G^+b+ | Smear G^+b ([1]; 0.010 % in test gel): G^+b+ | Smear G^+b ([1]; 0.015 % in test gel): G^+b+ | Smear G^+b ([1]; 0.020 % in test gel): G^+b+ | Smear G^+b ([1]; 0.025 % in test gel): G^+b+ | Smear G^+b ([1]; 0.030 % in test gel): G^+b+ | Smear G^+b ([1]; 0.035 % in test gel): G^+b+ | pH value ([2]; 0.005 % in test gel): 3.8 | pH value ([2]; 0.010 % in test gel): 3.8 | pH value ([2]; 0.015 % in test gel): 3.8 | pH value ([2]; 0.020 % in test gel): 3.8 | pH value ([2]; 0.025 % in test gel): 3.8 | pH value ([2]; 0.030 % in test gel): 3.8 | pH value ([2]; 0.035 % in test gel): 3.8 | Smear G^+c ([3]; 0.005 % in test gel): G^+c++ | inhibition effect on the growth of Lactococcus lactis ([3]; 0.005 to 0.035 percent): little inhibition effect | Smear G^+c ([3]; 0.010 % in test gel): G^+c++ | Smear G^+c ([3]; 0.015 % in test gel): G^+c++ | Smear G^+c ([3]; 0.020 % in test gel): G^+c++ | Smear G^+c ([3]; 0.025 % in test gel): G^+c++ | Smear G^+c ([3]; 0.030 % in test gel): G^+c++ | Smear G^+c ([3]; 0.035 % in test gel): G^+c++

CCCCCCCC(=O)[O-].[Na+] [sodium octanoate]
Smear G^+b ([1]; 0.010 % in test gel): G^+b+ | Smear G^+b ([1]; 0.015 % in test gel): G^+b+ | Smear G^+b ([1]; 0.020 % in test gel): G^+b+ | inhibiting effect on lactobacillus ([1]; 0.05 percent): stronger inhibiting effect | pH value ([2]; 0.010 % in test gel): <3.8 | pH value ([2]; 0.015 % in test gel): <3.8 | pH value ([2]; 0.020 % in test gel): 3.8 | pH value ([2]; 0.05 % in test gel): 4.8 | Smear G^+c ([3]; 0.010 % in test gel): G^+c++++ | inhibition effect on the growth of Lactococcus lactis ([3]; 0.010 to 0.020 percent): little inhibition effect | Smear G^+c ([3]; 0.015 % in test gel): G^+c++++ | Smear G^+c ([3]; 0.020 % in test gel): G^+c++++ | inhibiting effect on Lactococcus lactis ([3]; 0.05 percent): stronger inhibiting effect
